# Assays:
# Format in all cases: in vivo
# [1] = tested on: test plants; assay: Herbicidal action, post-emergence (Example B1), all test plants, result in words; conditions: same protocol as Example B1, post-emergence
# Protocol: (§1) Seeds of a variety of test species were sown in sterilised standard soil in seed trays each having 96 cells. […] The plants were grown in the climatic chamber after application at (24/19° C., day/night; 13 hours light; 50-60% humidity) and watered twice daily. After 9 days until the test was evaluated (10=total damage to plant, 0=no damage to plant)
# [2] = tested on: Nasturtium officinale; assay: Herbicidal action, post-emergence, seed trays in climatic chamber (Example B1); conditions: 1000 g/ha, evaluated after 9 days, 10=total damage to plant, 0=no damage to plant
# Protocol: as §1
# [3] = tested on: Amaranthus retroflexus; assay: as above; conditions: 1000 g/ha, evaluated after 9 days, 10=total damage to plant, 0=no damage to plant
# Protocol: as §1
# [4] = tested on: Solanum nigrum; assay: as above; conditions: 1000 g/ha, evaluated after 9 days, 10=total damage to plant, 0=no damage to plant
# Protocol: as §1
# [5] = tested on: Stellaria media; assay: as above; conditions: 1000 g/ha, evaluated after 9 days, 10=total damage to plant, 0=no damage to plant
# Protocol: as §1
# [6] = tested on: test plants; assay: Herbicidal action, post-emergence (Example B2), all test plants, result in words; conditions: same protocol as Example B2, post-emergence
# Protocol: Seeds of a variety of test species were sown in standard soil in pots. After 8 days cultivation (post-emergence) under controlled conditions in a glasshouse (at 24/16° C., day/night; 14 hours light; 65% humidity), the plants were sprayed with an aqueous spray solution derived from the formulation of the technical active ingredient in acetone/water (50:50) solution containing 0.5% Tween 20 (polyoxyethelyene sorbitan monolaurate, CAS RN 9005-64-5). The test plants were then grown in a glasshouse under controlled conditions in a glasshouse (at 24/16° C., day/night; 14 hours light; 65% humidity) and watered twice daily. After 13 days, the test was evaluated (10=total damage to plant; 0=no damage to plant).
Compound,damage to the test plants [1],NAAOF damage to plant [2],AMARE damage to plant [3],SOLNI damage to plant [4],STEME damage to plant [5],other results
CC(C)(C)C(=O)Oc1c(-c2c(F)ccc(F)c2Cl)c(=O)[nH]c2ccncc12 [B3],little or no damage,,,,,
Cn1c(=O)c(-c2c(F)ccc(F)c2Cl)c(O)c2cccnc21 [D5],,6,7,0,7,
"CCn1c(=O)c(-c2c(F)ccc(F)c2Cl)c(OC(=O)C(C)(C)C)c2cnccc21 [B1, 2,2-dimethyl-propionic acid 3-(2-chloro-3,6-difluoro-phenyl)-1-ethyl-2-oxo-1,2-dihydro-[1,6]naphthyridin-4-yl ester]",,,,,,damage to the test plants [6]: little or no damage
O=c1[nH]c2nnccc2c(O)c1-c1c(F)cccc1Cl [E8],little or no damage,,,,,
CCc1cc(C)cc(CC)c1-c1c(OC(=O)C(C)C)c2ncccc2n(C)c1=O [A6],,6,3,6,8,
O=c1[nH]c2ncc(Br)cc2c(O)c1-c1c(F)cc(F)cc1F [D28],little or no damage,,,,,
O=c1[nH]c2ncccc2c(O)c1-c1ccccc1OC(F)(F)F [D3],little or no damage,,,,,
O=c1[nH]c2ncccc2c(O)c1-c1ccccn1 [D12],little or no damage,,,,,
O=c1[nH]c2nncnc2c(O)c1-c1c(F)cccc1Cl [E7],little or no damage,,,,,
"O=c1[nH]c2ncccc2c(O)c1-c1ccc(Cl)cc1Cl [D1, 3-(2,4-dichloro-phenyl)-4-hydroxy-1H-[1,8]naphthyridin-2-one]",little or no damage,,,,,
Cn1c(=O)c(-c2c(F)ccc(F)c2Cl)c(OC(=O)C(C)(C)C)c2ncccc21 [A5],,3,0,7,0,
"O=c1[nH]c2ncccc2c(O)c1-c1cccnc1 [D11, 4-Hydroxy-3-pyridin-3-yl-1H-[1,8]naphthyridin-2-one]",little or no damage,,,,,
O=c1[nH]c2cccnc2c(O)c1-c1cccnc1 [A7],,2,0,0,6,
O=c1[nH]c2ccncc2c(O)c1-c1c(F)ccc(F)c1Cl [B2],little or no damage,,,,,
O=c1[nH]c2nncnc2c(O)c1-c1c(F)ccc(F)c1Cl [E4],,0,2,4,0,
O=c1[nH]c2cnccc2c(O)c1-c1c(F)cc(F)cc1F [C3],little or no damage,,,,,
CC(=O)Oc1c(-c2c(F)ccc(F)c2Cl)c(=O)[nH]c2nncnc12 [E5],little or no damage,,,,,
O=c1[nH]c2ncccc2c(O)c1-c1c(Cl)cccc1Cl [D2],little or no damage,,,,,
O=c1[nH]c2cccnc2c(O)c1-c1ccccc1OC(F)(F)F [A2],,0,0,0,3,
Cn1c(=O)c(-c2c(F)ccc(F)c2Cl)c(O)c2ncccc21 [A3],,4,6,3,3,
O=c1[nH]c2ncccc2c(O)c1-c1c(F)ccc(F)c1Cl [D4],little or no damage,,,,,
Cc1cc(Cl)c2c(OC(=O)C(C)(C)C)c(-c3c(F)ccc(F)c3Cl)c(=O)n(C)c2n1 [D19],,,,,,damage to the test plants [6]: little or no damage
CC(C)(C)C(=O)Oc1c(-c2c(F)ccc(F)c2Cl)c(=O)[nH]c2ncncc12 [E1],,,,,,damage to the test plants [6]: little or no damage
